Values quoted from earlier work as cited in patent publication US20050273047A1, “System and method for transdermal delivery of an anticoagulant” (priority 2004, published 2005).

Target: Factor Xa (Homo sapiens, UniProt P00742)
Details: as compared to the corresponding methyl ester; cited from earlier work

Chain of Factor Xa (P00742 235-488 limits assumed): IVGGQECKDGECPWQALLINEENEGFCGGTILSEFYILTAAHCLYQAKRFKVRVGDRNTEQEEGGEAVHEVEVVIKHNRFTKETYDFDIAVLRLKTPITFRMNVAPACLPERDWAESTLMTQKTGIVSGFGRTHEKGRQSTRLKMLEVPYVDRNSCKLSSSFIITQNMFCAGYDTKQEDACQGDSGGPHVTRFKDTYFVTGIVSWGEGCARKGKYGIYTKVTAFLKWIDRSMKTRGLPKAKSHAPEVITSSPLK
Chain of Factor Xa (P00742 41-179 partner limits assumed): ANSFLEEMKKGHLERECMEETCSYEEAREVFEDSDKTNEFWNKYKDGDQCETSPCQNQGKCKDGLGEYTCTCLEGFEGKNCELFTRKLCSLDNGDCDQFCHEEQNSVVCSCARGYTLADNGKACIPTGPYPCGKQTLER

CC(=N)N1CC[C@H](Oc2ccc([C@H](Cc3ccc4ccc(C(=N)N)cc4c3)C(=O)O)cc2)C1 [compound shown in FIG. 7]
enhancement of Factor Xa selectivity by the carboxylic acid: about 100 fold
